Assays:
Experiment in all cases: relative viability (nuclei count vs DMSO), 5 days (fraction); higher = more cells survive
201T = system: 201T
In short: (§1)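 Medians of duplicate plates are given as relative viability. That measure is the nuclei count in treated wells divided by the count in vehicle wells. Counts were taken on 4× images of lung cancer cell lines in 1536-well plates, 5 days after pin-tool dosing the day after seeding with one drug alone or a fixed anchor-drug dose plus five library-drug doses (not always all listed) in √10 steps.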

A-427 = system: A-427
In short: as §1

ABC-1 = system: ABC-1
In short: as §1

BEN = system: BEN
In short: as §1

CAL-12T = system: CAL-12T
In short: as §1

H3255 = system: H3255
In short: as §1

LC-2-ad = system: LC-2-ad
In short: as §1

LCLC-97TM1 = system: LCLC-97TM1
In short: as §1

NCI-H1650 = system: NCI-H1650
In short: as §1

NCI-H1651 = system: NCI-H1651
In short: as §1

NCI-H1915 = system: NCI-H1915
In short: as §1

NCI-H1944 = system: NCI-H1944
In short: as §1

NCI-H2023 = system: NCI-H2023
In short: as §1

NCI-H2087 = system: NCI-H2087
In short: as §1

NCI-H441 = system: NCI-H441
In short: as §1

NCI-H460 = system: NCI-H460
In short: as §1

NCI-H520 = system: NCI-H520
In short: as §1

NCI-H596 = system: NCI-H596
In short: as §1

NCI-H650 = system: NCI-H650
In short: as §1

NCI-H661 = system: NCI-H661
In short: as §1

NCI-H727 = system: NCI-H727
In short: as §1

PC-3 [JPC-3] = system: PC-3 [JPC-3]
In short: as §1

With `CCN(CC)CCCCNc1ncc2cc(-c3cc(OC)cc(OC)c3)c(NC(=O)NC(C)(C)C)nc2n1` + COc1cccc2cc(-c3nc([C@H]4CC[C@H](C(=O)O)CC4)n4ncnc(N)c34)[nH]c12 [OSI-027] (partner 0.5 µM) the relative viability (201T; first compound 0.01 µM) was 0.615, the relative viability (201T; first compound 0.03162 µM) was 0.658 and the relative viability (201T; first compound 0.1 µM) was 0.927. The relative viability (201T; first compound 0.3162 µM) was 0.798, the relative viability (201T; first compound 1 µM) was 0.607 and the relative viability (A-427; first compound 0.01 µM) was 0.457. For the same molecule, the relative viability (A-427; first compound 0.03162 µM) was 0.435, the relative viability (A-427; first compound 0.1 µM) was 0.427 and the relative viability (A-427; first compound 0.3162 µM) was 0.364. It also gave a relative viability (A-427; first compound 1 µM) of 0.298, a relative viability (ABC-1; first compound 0.01 µM) of 0.433 and a relative viability (ABC-1; first compound 0.03162 µM) of 0.389. It also gave a relative viability (ABC-1; first compound 0.1 µM) of 0.55, a relative viability (ABC-1; first compound 0.3162 µM) of 0.499 and a relative viability (ABC-1; first compound 1 µM) of 0.402. For the same molecule, the relative viability (BEN; first compound 0.01 µM) was 0.242, the relative viability (BEN; first compound 0.03162 µM) was 0.285 and the relative viability (BEN; first compound 0.1 µM) was 0.347. The relative viability (BEN; first compound 0.3162 µM) was 0.311, the relative viability (BEN; first compound 1 µM) was 0.282 and the relative viability (CAL-12T; first compound 0.01 µM) was 0.623. For the same molecule, the relative viability (CAL-12T; first compound 0.03162 µM) was 0.736, the relative viability (CAL-12T; first compound 0.1 µM) was 0.789 and the relative viability (CAL-12T; first compound 0.3162 µM) was 0.836. For the same molecule, the relative viability (CAL-12T; first compound 1 µM) was 0.576, the relative viability (H3255; first compound 0.01 µM) was 0.524 and the relative viability (H3255; first compound 0.03162 µM) was 0.547. For the same molecule, the relative viability (H3255; first compound 0.1 µM) was 0.698, the relative viability (H3255; first compound 0.3162 µM) was 0.448 and the relative viability (H3255; first compound 1 µM) was 0.538. It also gave a relative viability (LC-2-ad; first compound 0.01 µM) of 0.776, a relative viability (LC-2-ad; first compound 0.03162 µM) of 1.05 and a relative viability (LC-2-ad; first compound 0.1 µM) of 0.909. It also gave a relative viability (LC-2-ad; first compound 0.3162 µM) of 0.854, a relative viability (LC-2-ad; first compound 1 µM) of 0.75 and a relative viability (LCLC-97TM1; first compound 0.01 µM) of 0.553. For the same molecule, the relative viability (LCLC-97TM1; first compound 0.03162 µM) was 0.518, the relative viability (LCLC-97TM1; first compound 0.1 µM) was 0.513 and the relative viability (LCLC-97TM1; first compound 0.3162 µM) was 0.619. It also gave a relative viability (LCLC-97TM1; first compound 1 µM) of 0.367, a relative viability (NCI-H1650; first compound 0.01 µM) of 0.7 and a relative viability (NCI-H1650; first compound 0.03162 µM) of 0.702. It also gave a relative viability (NCI-H1650; first compound 0.1 µM) of 0.649, a relative viability (NCI-H1650; first compound 0.3162 µM) of 0.624 and a relative viability (NCI-H1650; first compound 1 µM) of 0.4. For the same molecule, the relative viability (NCI-H1651; first compound 0.01 µM) was 0.7, the relative viability (NCI-H1651; first compound 0.03162 µM) was 0.737 and the relative viability (NCI-H1651; first compound 0.1 µM) was 0.782. It also gave a relative viability (NCI-H1651; first compound 0.3162 µM) of 0.79, a relative viability (NCI-H1651; first compound 1 µM) of 0.695 and a relative viability (NCI-H1915; first compound 0.01 µM) of 0.377. It also gave a relative viability (NCI-H1915; first compound 0.03162 µM) of 0.645, a relative viability (NCI-H1915; first compound 0.1 µM) of 0.775 and a relative viability (NCI-H1915; first compound 0.3162 µM) of 0.721. It also gave a relative viability (NCI-H1915; first compound 1 µM) of 0.643, a relative viability (NCI-H1944; first compound 0.01 µM) of 0.417 and a relative viability (NCI-H1944; first compound 0.03162 µM) of 0.449. It also gave a relative viability (NCI-H1944; first compound 0.1 µM) of 0.437, a relative viability (NCI-H1944; first compound 0.3162 µM) of 0.406 and a relative viability (NCI-H1944; first compound 1 µM) of 0.351. It also gave a relative viability (NCI-H2023; first compound 0.01 µM) of 0.426, a relative viability (NCI-H2023; first compound 0.03162 µM) of 0.452 and a relative viability (NCI-H2023; first compound 0.1 µM) of 0.518. The relative viability (NCI-H2023; first compound 0.3162 µM) was 0.486, the relative viability (NCI-H2023; first compound 1 µM) was 0.359 and the relative viability (NCI-H2087; first compound 0.01 µM) was 0.618. It also gave a relative viability (NCI-H2087; first compound 0.03162 µM) of 0.5, a relative viability (NCI-H2087; first compound 0.1 µM) of 0.733 and a relative viability (NCI-H2087; first compound 0.3162 µM) of 0.636. The relative viability (NCI-H2087; first compound 1 µM) was 0.6, the relative viability (NCI-H441; first compound 0.01 µM) was 0.56 and the relative viability (NCI-H441; first compound 0.03162 µM) was 0.669. It also gave a relative viability (NCI-H441; first compound 0.1 µM) of 0.638, a relative viability (NCI-H441; first compound 0.3162 µM) of 0.689 and a relative viability (NCI-H441; first compound 1 µM) of 0.623. The relative viability (NCI-H460; first compound 0.01 µM) was 0.879, the relative viability (NCI-H460; first compound 0.03162 µM) was 0.677 and the relative viability (NCI-H460; first compound 0.1 µM) was 0.859. It also gave a relative viability (NCI-H460; first compound 0.3162 µM) of 0.815, a relative viability (NCI-H460; first compound 1 µM) of 0.291 and a relative viability (NCI-H520; first compound 0.01 µM) of 0.251. For the same molecule, the relative viability (NCI-H520; first compound 0.03162 µM) was 0.228, the relative viability (NCI-H520; first compound 0.1 µM) was 0.259 and the relative viability (NCI-H520; first compound 0.3162 µM) was 0.192. It also gave a relative viability (NCI-H520; first compound 1 µM) of 0.155, a relative viability (NCI-H596; first compound 0.01 µM) of 0.63 and a relative viability (NCI-H596; first compound 0.03162 µM) of 0.74. The relative viability (NCI-H596; first compound 0.1 µM) was 0.758, the relative viability (NCI-H596; first compound 0.3162 µM) was 0.709 and the relative viability (NCI-H596; first compound 1 µM) was 0.528. For the same molecule, the relative viability (NCI-H650; first compound 0.01 µM) was 0.46, the relative viability (NCI-H650; first compound 0.03162 µM) was 0.551 and the relative viability (NCI-H650; first compound 0.1 µM) was 0.589. The relative viability (NCI-H650; first compound 0.3162 µM) was 0.605, the relative viability (NCI-H650; first compound 1 µM) was 0.507 and the relative viability (NCI-H661; first compound 0.01 µM) was 0.784. For the same molecule, the relative viability (NCI-H661; first compound 0.03162 µM) was 0.727, the relative viability (NCI-H661; first compound 0.1 µM) was 0.779 and the relative viability (NCI-H661; first compound 0.3162 µM) was 0.743. For the same molecule, the relative viability (NCI-H661; first compound 1 µM) was 0.48, the relative viability (NCI-H727; first compound 0.01 µM) was 0.673 and the relative viability (NCI-H727; first compound 0.03162 µM) was 0.591. It also gave a relative viability (NCI-H727; first compound 0.1 µM) of 0.623, a relative viability (NCI-H727; first compound 0.3162 µM) of 0.842 and a relative viability (NCI-H727; first compound 1 µM) of 0.498. It also gave a relative viability (PC-3 [JPC-3]; first compound 0.01 µM) of 0.753, a relative viability (PC-3 [JPC-3]; first compound 0.03162 µM) of 0.796 and a relative viability (PC-3 [JPC-3]; first compound 0.1 µM) of 0.782. For the same molecule, the relative viability (PC-3 [JPC-3]; first compound 0.3162 µM) was 1.02 and the relative viability (PC-3 [JPC-3]; first compound 1 µM) was 0.585.
